Where “and” joins values, the source holds several entries; their conditions need not be identical. Equal entries are not always repeated.

What all share (format): in vivo
One test concerns rabbit plasma. As to the kind of experiment: Prothrombin time in plasma of balloon angioplasty rabbits. The following applies: for Clotting Time (prothrombin time), individual animals: listed as DEGR-FVIIa. On the procedure: The test drug delivery for the animals consisted of an initial bolus injection immediately prior to balloon angioplasty, followed by a continuous systemic infusion by osmotic pump via the internal jugular vein. The duration of the drug infusion was 3 days. The control animals received heparin, 150 U/kg IV bolus, prior to balloon angioplasty followed by saline infusion. The DEGR-FVIIa treated animals received a 1 mg/kg bolus injection followed by 50 μg/kg/hr infusion.
Prothrombin time and concentration of DEGR-FVIIa in the blood were determined at immediately pre-bolus injection of the test compound, 1 hr post bolus injection, and at 3 days at the end of continuous infusion. One to two mls of citrated plasma was obtained and the prothrombin times and antigen levels determined.
A standard clotting assay was used to monitor the prothrombin time in the control and DEGR-FVIIa-treated animals as follows. Twenty-five microliters of test rabbit plasma, collected with sodium citrate as anticoagulant, was added to 150 μl of TBS (20 mM Tris, pH 7.4, 150 mM NaCl). The samples were mixed and added to an Electra 800 Automated Coagulation Timer (Medical Laboratories Automation, Pleasantville, N.Y.). After incubation, 200 μl of thromboplastin preparation (Sigma Chemical) containing 25 mM CaCl2 was added to the plasma preparations. A concentration of thromboplastin that gave a clotting time of approximately 20 seconds in the control rabbit plasma was selected.

The test system of test [1] is intimal lesion development in femoral arteries. As to the kind of experiment: Morphometry of intima and media after balloon angioplasty in atherosclerotic rabbits. The conditions noted are these: rabbit femoral artery, three weeks post-angioplasty; 1 mg/kg bolus + 50 μg/kg/hr for 3 days. On the procedure: DEGR-FVIIa was evaluated for its ability to modulate lesion development following balloon angioplasty in New Zealand White (NZW) atherosclerotic rabbits. This animal model has been well characterized and has proven to be a good model for evaluating anti-thrombotic compounds on vascular lesion development (Gimple et al., Circulation 86:1536-1546 (1992), and Rogosta et al., Circulation 89:1262-1271 (1994)). The animal model used to evaluate DEGR-FVIIa is essentially as described by Ragosta, ibid.
Anesthesia was induced in rabbits with 5 mg/kg xylazine and 35 mg/kg ketamine by intramuscular injection. The proximal femoral arteries were exposed by cutdown below the inguinal ligament with proximal and distal ligatures. The isolated segments were cannulated with 27 gauge needles. A vent was created by needle puncture. The isolated segments were flushed with saline to clear residual blood, and desiccated by air infused at a rate of 80 ml/min for 8 minutes. Following air-drying, the isolated segments were again flushed with saline and the ligatures removed. Hemostasis was maintained with non-occlusive local pressure. The segments were demarcated with metal clips. Local spasm was treated with Xylocaine 1% locally. The day following surgery, the animals were placed on 1% cholesterol and 6% peanut oil diet for one month until balloon angioplasty. […]

The test system of test [2] is vascular lesion formation. As to the kind of experiment: Balloon brachial artery model in baboons. The following applies: baboon brachial artery balloon model, preliminary studies. On the procedure:
Under halothane anesthesia and sterile operating conditions, animals labeled with autologous ^111In-platelets received intravenous infusions of DEGR-FVIIa using the tether system for continuous intravenous administration (initial bolus injection of 1 mg/kg followed by continuous intravenous infusion of 50 μg/kg/hr. The animals received surgical carotid endarterectomy, bilateral brachial artery or bilateral femoral artery Fogarty balloon catheter angioplasties.
The DEGR-FVIIa was administered for 7 or 30 days by continuous infusions via venous catheter using the tether system. […]
For morphometric analysis of VLF, sections embedded in paraffin and stained for connective tissue components (collagen, elastin) and with hematoxylin-eosin, were evaluated using a Zeiss Photoscope coupled with image analysis system (Thomas Optical Measurement Systems, Columbus, Ga.) consisting of high resolution (580 lines) CCD microscope camera coupled to a high resolution (700 lines) monitor, an IBM 386 chip, 80 MB computer with high resolution graphics digitablet for image acquisition and storage. Quantitative image analysis was performed using a morphometric software driver (Optimas, Bioscan, Inc., Edmonds, Wash.). Arterial cross-sections were analyzed with respect to the total area of neointimal proliferative lesion and corresponding area of arterial media. […]

For “DEGR-Factor VIIa: Recombinant human Factor VIIa with its active site derivatized by Dansyl-L-Glu-Gly-Arg-chloromethyl Ketone (DEGRck)”, the entries for the “Plasma clotting time, Mean” value in the test with rabbit plasma (1 Hr POST ANGIO), in the test with rabbit plasma (3 Days POST ANGIO) and in the test on rabbit plasma (PRE-BLEED) were 40.8, 21.06 and 23.2, respectively. Moreover, the “Clotting Time (prothrombin time), individual animals” value with rabbit plasma (1 hour after 1 mg/kg bolus, 50 μg/kg/hr infusion) was 40.1 s and 34 s and 50 s and 33.3 s and 45.8 s and 41.6 s; in the test with rabbit plasma (3 days, end of 50 μg/kg/hr infusion), 18.3 s and 20.9 s and 21.7 s and 21 s and 21.2 s and 21.9 s and 22.4 s; with rabbit plasma (Pretreatment (pre-bolus)), 22.5 s and 24.3 s and 24.7 s and 23.6 s and 20.6 s and 23.5 s. For the same substance, the Intima in test [1] is reported as 0.438 mm2. The Media in test [1] is reported as 0.329 mm2. For the same substance, the benefit of therapy result in test [2] is on record as “no measurable benefit”.

The values are drawn from patent publication US20040087498A1, “Modified factor VII” (Novo Nordisk Health Care AG, priority 1991, published 2004).
